The assay concerns the target BRD4 (BDI_K57-E168) (Homo sapiens, UniProt O60885). The assay can be described thus: TR-FRET bromodomain binding assay, BRD4 first bromodomain (BDI). As to conditions: mean Ki; 12 nM His tagged BRD4 (BDI_K57-E168), 100 nM Alexa647 probe; Ki calculated from IC50, probe Kd and probe concentration. The protocol: A time-resolved fluorescence resonance energy transfer (TR-FRET) assay was used to determine the affinities of compounds of the Examples listed in Table 1 for each bromodomain of BRD4. […] An Alexa647-labeled BET-inhibitor was used as the fluorescent probe in the assay.
Compound dilution series were prepared in DMSO via an approximately 3-fold serial dilution. Compound dilutions were added directly into white, low-volume assay plates (Perkin Elmer Proxiplate 384 Plus# 6008280) using a Labcyte Echo in conjunction with Labcyte Access and Thermo Multidrop CombinL robotics. Compounds were then suspended in eight microliters (μL) of assay buffer (20 mM Sodium Phosphate, pH 6.0, 50 mM NaCl, 1 mM Ethylenediaminetetraacetic acid disodium salt dihydrate, 0.01% Triton X-100, 1 mM DL-Dithiothreitol) containing His-tagged bromodomain, Europium-conjugated anti-His antibody (Invitrogen PV5596) and Alexa-647-conjugated probe.
After a one-hour equilibration at room temperature, TR-FRET ratios were determined using an Envision multilabel plate reader (Ex 340, Em 495/520).
TR-FRET data were normalized to the means of 24 no-compound controls (“high”) and 8 controls containing 1 μM un-labeled probe (“low”). Percent inhibition was plotted as a function of compound concentration and the data were fit with the 4 parameter logistic equation to obtain IC50s. Inhibition constants (Ki) were calculated from the IC50s, probe Kd and probe concentration.

The structures appear in SMILES notation.

By Ki is commonly meant a dissociation constant, usually derived from enzyme kinetics or from competition with a known ligand. Consider `CN1C(=O)[C@@]2(C[C@H]2c2cn(C)c(=O)c3[nH]c(C(=O)O)cc23)c2ccccc21` (single isomer, unassigned) [Example 7], for which the Ki is above 13000 nM. For `Cc1nn(C)cc1-c1cc2c([C@@H]3C[C@@]34C(=O)N(C)c3ccccc34)cn(C)c(=O)c2[nH]1` (racemic) [Example 36, rac-(1R,2S)-2-[2-(1,3-dimethyl-1H-pyrazol-4-yl)-6-methyl-7-oxo-6,7-dihydro-1H-pyrrolo[2,3-c]pyridin-4-yl]-1′-methylspiro[cyclopropane-1,3′-indol]-2′(1H)-one] the value was above 13000 nM; for `CN1C(=O)[C@@]2(C[C@H]2c2cn(C)c(=O)c3[nH]c(-c4cc[nH]n4)cc23)c2ccccc21` (racemic) [Example 37, rac-(1R,2S)-1′-methyl-2-[6-methyl-7-oxo-2-(1H-pyrazol-3-yl)-6,7-dihydro-1H-pyrrolo[2,3-c]pyridin-4-yl]spiro[cyclopropane-1,3′-indol]-2′(1H)-one], 1250 nM. For `CN1C(=O)[C@@]2(C[C@H]2c2cn(C)c(=O)c3[nH]c(-c4ncco4)cc23)c2ccccc21` (racemic) [Example 42, rac-(1R,2S)-1′-methyl-2-[6-methyl-2-(1,3-oxazol-2-yl)-7-oxo-6,7-dihydro-1H-pyrrolo[2,3-c]pyridin-4-yl]spiro[cyclopropane-1,3′-indol]-2′(1H)-one] the value was 2820 nM; for `CN1C(=O)[C@@]2(C[C@H]2c2cn(C)c(=O)c3[nH]c(C(=O)NC4CC4)cc23)c2ccc(F)cc21` (racemic) [Example 11, rac-N-cyclopropyl-4-[(1R,2S)-6′-fluoro-1′-methyl-2′-oxo-1′,2′-dihydrospiro[cyclopropane-1,3′-indol]-2-yl]-6-methyl-7-oxo-6,7-dihydro-1H-pyrrolo[2,3-c]pyridine-2-carboxamide], 7380 nM; for `Cn1cc([C@@H]2C[C@@]23C(=O)N(Cc2ccc(N)cc2)c2ccccc23)c2cc(C(=O)NC3CC3)[nH]c2c1=O` (racemic) [Example 28, rac-4-{(1R,2S)-1′-[(4-aminophenyl)methyl]-2′oxo-1′,2′-dihydrospiro[cyclopropane-1,3′-indol]-2-yl}-N-cyclopropyl-6-methyl-7-oxo-6,7-dihydro-1H-pyrrolo [2,3-c]pyridine-2-carboxamide], 7430 nM.

On to `Cc1ccnc(-c2cc3c([C@@H]4C[C@@]45C(=O)N(C)c4ccccc45)cn(C)c(=O)c3[nH]2)c1` (racemic) [Example 46, rac-(1R,2S)-1′-methyl-2-[6-methyl-2-(4-methylpyridin-2-yl)-7-oxo-6,7-dihydro-1H-pyrrolo[2,3-c]pyridin-4-yl]spiro[cyclopropane-1,3′-indol]-2′(1H)-one], for which the Ki was above 13000 nM. For the molecule `CN1C(=O)[C@@]2(C[C@H]2c2cn(C)c(=O)c3[nH]c(-c4ccnnc4)cc23)c2ccccc21` (racemic) [Example 56, rac-(1R,2S)-1′-methyl-2-[6-methyl-7-oxo-2-(pyridazin-4-yl)-6,7-dihydro-1H-pyrrolo[2,3-c]pyridin-4-yl]spiro[cyclopropane-1,3′-indol]-2′(1H)-one], the Ki was 2760 nM. For the molecule `CN1C(=O)[C@@]2(C[C@@]2(C)c2cn(C)c(=O)c3[nH]c(C(=O)NC4CC4)cc23)c2ccc(OC(F)(F)F)cc21` (racemic) [Example 58, rac-N-cyclopropyl-4-[(1R,2S)-1′,2-dimethyl-2′-oxo-6′-(trifluoromethoxy)-1′,2′-dihydrospiro[cyclopropane-1,3′-indol]-2-yl]-6-methyl-7-oxo-6,7-dihydro-1H-pyrrolo[2,3-c]pyridine-2-carboxamide], the inhibition constant Ki was above 13000 nM. Take `CN1C(=O)[C@@]2(C[C@H]2c2cn(C)c(=O)c3[nH]c(-c4cccnc4)cc23)c2ccccc21` (racemic) [Example 47, rac-(1R,2S)-1′-methyl-2-[6-methyl-7-oxo-2-(pyridin-3-yl)-6,7-dihydro-1H-pyrrolo[2,3-c]pyridin-4-yl]spiro[cyclopropane-1,3′-indol]-2′(1H)-one]: the Ki was 2620 nM. For `CN1C(=O)[C@@]2(C[C@H]2c2cn(C)c(=O)c3[nH]c(-c4ccnc(C(F)(F)F)c4)cc23)c2ccccc21` (racemic) [Example 51, rac-(1R,2S)-1′-methyl-2-{6-methyl-7-oxo-2-[2-(trifluoromethyl)pyridin-4-yl]-6,7-dihydro-1H-pyrrolo[2,3-c]pyridin-4-yl}spiro[cyclopropane-1,3′-indol]-2′(1H)-one] the value was 4680 nM; for `COc1ccc2c(c1)N(C)C(=O)[C@@]21C[C@H]1c1cn(C)c(=O)c2[nH]c(C(=O)NC3CC3)cc12` (racemic) [Example 14, rac-N-cyclopropyl-4-[(1R,2S)-6′-methoxy-1′-methyl-2′-oxo-1′,2′-dihydrospiro[cyclopropane-1,3′-indol]-2-yl]-6-methyl-7-oxo-6,7-dihydro-1H-pyrrolo[2,3-c]pyridine-2-carboxamide], 4800 nM. For `Cn1cc([C@@H]2C[C@@]23C(=O)Nc2ccccc23)c2cc(C(=O)NC3CC3)[nH]c2c1=O` (racemic) [Example 19, rac-N-cyclopropyl-6-methyl-7-oxo-4-[(1R,2S)-2′-oxo-1′,2′-dihydrospiro[cyclopropane-1,3′-indol]-2-yl]-6,7-dihydro-1H-pyrrolo[2,3-c]pyridine-2-carboxamide] the value was above 13000 nM; for `CN1C(=O)[C@@]2(C[C@H]2c2cn(C)c(=O)c3[nH]c(-c4cn(C)cn4)cc23)c2ccccc21` (racemic) [Example 43, rac-(1R,2S)-1′-methyl-2-[6-methyl-2-(1-methyl-1H-imidazol-4-yl)-7-oxo-6,7-dihydro-1H-pyrrolo[2,3-c]pyridin-4-yl]spiro[cyclopropane-1,3′-indol]-2′(1H)-one], 1840 nM. With `Cc1cc(-c2cc3c([C@@H]4C[C@@]45C(=O)N(C)c4ccccc45)cn(C)c(=O)c3[nH]2)on1` (racemic) [Example 39, rac-(1R,2S)-1′-methyl-2-[6-methyl-2-(3-methyl-1,2-oxazol-5-yl)-7-oxo-6,7-dihydro-1H-pyrrolo[2,3-c]pyridin-4-yl]spiro[cyclopropane-1,3′-indol]-2′(1H)-one] the figure was 885 nM. As for `CN1C(=O)[C@]2(C[C@@H]2c2cn(C)c(=O)c3[nH]c(-c4cccnc4)cc23)c2ccccc21` [Example 48, (1S,2R)-1′-methyl-2-[6-methyl-7-oxo-2-(pyridin-3-yl)-6,7-dihydro-1H-pyrrolo[2,3-c]pyridin-4-yl]spiro[cyclopropane-1,3′-indol]-2′(1H)-one], the Ki is 1420 nM. For `CN1C(=O)[C@@]2(C[C@H]2c2cn(C)c(=O)c3[nH]c(-c4cnn(C)c4)cc23)c2ccccc21` (racemic) [Example 33, rac-(1R,2S)-1′-methyl-2-[6-methyl-2-(1-methyl-1H-pyrazol-4-yl)-7-oxo-6,7-dihydro-1H-pyrrolo[2,3-c]pyridin-4-yl]spiro[cyclopropane-1,3′-indol]-2′(1H)-one] the value was 531 nM. For `CN1C(=O)[C@]2(C[C@@H]2c2cn(C)c(=O)c3[nH]c(C(=O)NC4CC4)cc23)c2cc(F)ccc21` [Example 17, N-cyclopropyl-4-[(1S,2R)-5′-fluoro-′-methyl-2′-oxo-1′,2′-dihydrospiro[cyclopropane-1,3′-indol]-2-yl]-6-methyl-7-oxo-6,7-dihydro-1H-pyrrolo[2,3-c]pyridine-2-carboxamide] the value was 5040 nM. As to `CN1C(=O)[C@@]2(C[C@H]2c2cn(C)c(=O)c3[nH]c(C(=O)Nc4cccc(CO)c4)cc23)c2ccccc21` (racemic) [Example 10, rac-N-[3-(hydroxymethyl)phenyl]-6-methyl-4-[(1R,2S)-1′-methyl-2′-oxo-1′,2′-dihydrospiro[cyclopropane-1,3′-indol]-2-yl]-7-oxo-6,7-dihydro-1H-pyrrolo[2,3-c]pyridine-2-carboxamide], the Ki was 2050 nM. With `Cn1cc([C@@H]2C[C@@]23C(=O)N(CC(F)(F)F)c2ccccc23)c2cc(C(=O)NC3CC3)[nH]c2c1=O` [Example 25, N-cyclopropyl-6-methyl-7-oxo-4-[(1R,2S)-2′-oxo-′-(2,2,2-trifluoroethyl)-1′,2′-dihydrospiro[cyclopropane-1,3′-indol]-2-yl]-6,7-dihydro-1H-pyrrolo[2,3-c]pyridine-2-carboxamide] the figure was above 13000 nM; with `CN1C(=O)[C@@]2(C[C@H]2c2cn(C)c(=O)c3[nH]c(-c4cnn(C)c4)cc23)c2ccccc21` [Example 35, (1R,2S)-1′-methyl-2-[6-methyl-2-(1-methyl-1H-pyrazol-4-yl)-7-oxo-6,7-dihydro-1H-pyrrolo[2,3-c]pyridin-4-yl]spiro[cyclopropane-1,3′-indol]-2′(1H)-one], 1300 nM.

In the case of `Cc1ccc2c(c1)N(C)C(=O)[C@@]21C[C@H]1c1cn(C)c(=O)c2[nH]c(C(=O)NC3CC3)cc12` (racemic) [Example 13, rac-N-cyclopropyl-4-[(1R,2S)-1′,6′-dimethyl-2′-oxo-1′,2′-dihydrospiro[cyclopropane-1,3′-indol]-2-yl]-6-methyl-7-oxo-6,7-dihydro-1H-pyrrolo[2,3-c]pyridine-2-carboxamide], the Ki was 2950 nM.

The values are drawn from patent US20210130346A1, “Bromodomain Inhibitors” (AbbVie Inc., priority 2017, published 2021).
